Experimental data as given in patent US20220273659A1, “HETEROCYCLIC COMPOUNDS AS KINASE INHIBITORS” (NUVATION BIO INC., priority 2019, published 2022).

Tests used:
CDK4 = biological target: T1, CDK4 (Homo sapiens, UniProt P11802); experiment: In vitro kinase inhibition IC50, luminescence (ADP Glo), retinoblastoma substrate; assay type: biochemical; conditions: read-out: CDK4/D1 IC50
T1 construct: purchased Invitrogen PR8064A
Experimental: (§1) IC50 values of compounds against CDK4 and CDK6 were determined by luminescence using retinoblastoma as substrate. Kinase assays were performed in kinase buffer (#PV6135, Invitrogen Life Technologies, Grand Island, N.Y.) where total reaction volume was […] in 96-well half area white plates (#3693, Costar). One microliter of 25×test compounds at specific concentrations (e.g., final concentration range: 0.1 nM-200 nM) was mixed with 10 μL of 2.5×kinase (5 nM, CDK4 #PR8064A and CDK6 #PR8422B, Invitrogen) solution and 14 μL of 4× mixed solution with retinoblastoma (1 μM, #12-439, EMD Millipore, Hayward, Calif.) and ATP (25 μM, #V7038, Promega, Madison, Wis.). The plates were covered and incubated for 2H at room temperature. At the end of incubation, 25 μL of stop solution—ADP Glo reagent (#V7002, Promega) was added. After incubation for 45 min at room temperature, 50 μL of detection reagent (##V7002, Promega) was added. Readings were taken at 15 min and 45 min incubation after detection reagent was added in a Synergy Neo Plate reader (BioTek, Winooski, Vt.) at single excitation of 340 nm and Dual emission at 495 nm and 520 nm respectively. The following equations were used in the CDK4 and CDK6 assay data analysis. Percent inhibition (100-% activity) was fitted to the “four-parameter logistic model” in XLfit for determination of IC50 values.
(§2) Percent conversion of enzyme=100−{(RLUNo Drug−No enzyme*100)/RLUNo drug+Enzyme} Equation 1:
(§3) Percent conversion at each data point=100−{(RLUAverage(Drug+enzyme)*100)!RLUNo drug+Enzyme} Equation 2:
(§4) Percent Inhibition=100*(% Conversioneach data point/% ConversionEnzyme) Equation 3: […]

CDK6 = biological target: T2, CDK6 (Homo sapiens, UniProt Q00534); experiment: as above; assay type: biochemical; conditions: read-out: CDK6/D1 IC50
T2 construct: purchased Invitrogen PR8422B
T2 sequence (Q00534 whole entry): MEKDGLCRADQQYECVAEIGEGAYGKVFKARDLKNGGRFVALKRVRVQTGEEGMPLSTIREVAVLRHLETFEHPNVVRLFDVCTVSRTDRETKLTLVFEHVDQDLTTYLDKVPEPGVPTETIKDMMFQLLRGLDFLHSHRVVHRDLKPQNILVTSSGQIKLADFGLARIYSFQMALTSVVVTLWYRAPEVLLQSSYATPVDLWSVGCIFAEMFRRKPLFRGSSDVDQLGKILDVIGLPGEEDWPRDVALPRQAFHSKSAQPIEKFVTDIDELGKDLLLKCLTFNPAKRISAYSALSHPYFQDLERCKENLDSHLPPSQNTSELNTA
T2 sequence (P24385 whole entry partner): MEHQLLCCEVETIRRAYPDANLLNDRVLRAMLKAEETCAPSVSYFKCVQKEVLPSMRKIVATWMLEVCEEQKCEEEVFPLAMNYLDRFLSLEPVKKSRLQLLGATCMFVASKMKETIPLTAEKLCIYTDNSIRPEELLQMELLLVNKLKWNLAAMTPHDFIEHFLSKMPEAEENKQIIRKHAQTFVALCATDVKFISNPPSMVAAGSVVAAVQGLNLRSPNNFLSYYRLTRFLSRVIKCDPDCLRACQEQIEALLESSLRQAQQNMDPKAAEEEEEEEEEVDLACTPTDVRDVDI
Experimental: as §1, §2, §3, §4

[1] = test system: DU4475 breast carcinoma cells; experiment: Cancer cell proliferation assay, single agent (cell viability); assay type: cell-based; conditions: Homo sapiens, DU-4475; Table 4; Rb negative; treatment 144 Hr with medium change at 72 Hr; Cell Titer-Glo or resazurin
Experimental: (§5) The effects of test compounds were studied in three breast cancer cell lines of different subtype. The cancer cells (Table 3) were harvested during the logarithmic growth period and counted. Cell concentrations were adjusted to the appropriate number with respective medium and 90 μL cell suspensions were added to 96-well plates. After cells were seeded, the plates were shaken gently to distribute cells evenly and incubated at 37° C., 5% CO2 on day 1.
(§6) Cells were treated with test compounds at 7 to 9 concentrations within a desired concentration range (e.g. 1.1 nM-10 μM) on day 2 by series diluting the test compound stock solution (10 mM in DMSO) with culture medium. Treatment duration was 24 Hr for BT-549 cells and 144 Hr (with a medium change at 72 Hr) for MCF-7 and DU4475 cells. Cell viability was assessed by Cell Titer-Glo® as recommended by Promega (Cat. No.: G7572), or by resazurin assay (Sigma Aldrich, Cat. No.: R7017) post treatment.
(§7) Cell viability data were plotted using GraphPad Prism (GraphPad Software, Inc., San Diego, Calif.). In addition, a nonlinear regression model with a sigmoidal dose response and variable slope within GraphPad Prism was used to calculate the IC50 value of individual test compounds.

[2] = test system: MCF-7 breast adenocarcinoma cells; experiment: as above; assay type: cell-based; conditions: Homo sapiens, MCF7, Table 4; Rb positive; treatment 144 Hr with medium change at 72 Hr; Cell Titer-Glo or resazurin
Experimental: as §5, §6, §7

T1 sequence (P11802 whole entry): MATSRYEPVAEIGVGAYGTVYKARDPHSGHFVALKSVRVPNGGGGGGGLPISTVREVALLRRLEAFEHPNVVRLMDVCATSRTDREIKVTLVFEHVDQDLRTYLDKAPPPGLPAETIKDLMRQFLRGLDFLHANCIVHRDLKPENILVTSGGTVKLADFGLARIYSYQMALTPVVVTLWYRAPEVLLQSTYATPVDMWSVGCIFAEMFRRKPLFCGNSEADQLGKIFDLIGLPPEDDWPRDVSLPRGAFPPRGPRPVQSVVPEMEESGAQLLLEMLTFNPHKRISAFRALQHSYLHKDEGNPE
T1 sequence (P24385 whole entry partner): as the sequence (P24385 whole entry partner) above

| SMILES | IC50 (CDK4) [nM] | IC50 (CDK6) [nM] | IC50 [1] [nM] | IC50 [2] [nM] |
| --- | --- | --- | --- | --- |
| CN(C)CCN1CCc2ccc(Nc3ncc4cc(C#N)c(=O)n(C5CCCC5)c4n3)cc2C1 [Compound No. 62, 8-cyclopentyl-2-((2-(2-(dimethylamino)ethyl)-1,2,3,4-tetrahydroisoquinolin-7-yl)amino)-7-oxo-7,8-dihydropyrido[2,3-d]pyrimidine-6-carbonitrile] | 14 | 4 | 1260 | 594 |
| CN(C)CCN1CCc2nc(Nc3ncc4cc(C#N)c(=O)n(C5CCCC5)c4n3)ccc2C1 [Compound No. 64, 8-cyclopentyl-2-((6-(2-(dimethylamino)ethyl)-5,6,7,8-tetrahydro-1,6-naphthyridin-2-yl)amino)-7-oxo-7,8-dihydropyrido[2,3-d]pyrimidine-6-carbonitrile] | > 200 | 32 | 4740 | 3590 |
| CN(C)CCN1CCC(Nc2ncc3cc(C#N)c(=O)n(C4CCCC4)c3n2)CC1 [Compound No. 67, 8-cyclopentyl-2-((1-(2-(dimethylamino)ethyl)piperidin-4-yl)amino)-7-oxo-7,8-dihydropyrido[2,3-d]pyrimidine-6-carbonitrile] | > 140 | > 200 | 4450 | 1640 |
| CN(C)CCN1CCc2ccc(Nc3ncc4cc(C#N)c(=O)n(C5CCCC5)c4n3)cc2C1=O [Compound No. 68, 8-cyclopentyl-2-((2-(2-(dimethylamino)ethyl)-1-oxo-1,2,3,4-tetrahydroisoquinolin-7-yl)amino)-7-oxo-7,8-dihydropyrido[2,3-d]pyrimidine-6-carbonitrile] | > 200 | > 200 | > 10000 | > 10000 |
| CC(=O)N1CCc2cc(Nc3ncc4cc(C#N)c(=O)n(C5CCCC5)c4n3)ccc2C1 [Compound No. 71, 2-((2-acetyl-1,2,3,4-tetrahydroisoquinolin-6-yl)amino)-8-cyclopentyl-7-oxo-7,8-dihydropyrido[2,3-d]pyrimidine-6-carbonitrile] | – | 5 | 1650 | 793 |
| CN(C)CCCN1CCc2cc(Nc3ncc4cc(C#N)c(=O)n(C5CCCC5)c4n3)ccc2C1 [Compound No. 72, 8-cyclopentyl-2-((2-(3-(dimethylamino)propyl)-1,2,3,4-tetrahydroisoquinolin-6-yl)amino)-7-oxo-7,8-dihydropyrido[2,3-d]pyrimidine-6-carbonitrile] | – | 1 | 985 | 330 |
| CN(C)CCN1CCC(n2ccc(Nc3ncc4cc(C#N)c(=O)n(C5CCCC5)c4n3)cc2=O)CC1 [Compound No. 73, 8-cyclopentyl-2-((1-(1-(2-(dimethylamino)ethyl)piperidin-4-yl)-2-oxo-1,2-dihydropyridin-4-yl)amino)-7-oxo-7,8-dihydropyrido[2,3-d]pyrimidine-6-carbonitrile] | 15 | 28 | > 8430 | 1590 |
| COCCN1CCc2cc(Nc3ncc4cc(C#N)c(=O)n(C5CCCC5)c4n3)ccc2C1 [Compound No. 75, 8-cyclopentyl-2-((2-(2-methoxyethyl)-1,2,3,4-tetrahydroisoquinolin-6-yl)amino)-7-oxo-7,8-dihydropyrido[2,3-d]pyrimidine-6-carbonitrile] | 7 | 5.5 | 1050 | 598 |
| CN(C)CCN1Cc2cc(Nc3ncc4cc(C#N)c(=O)n(C5CCCC5)c4n3)ccc2C(C)(C)C1 [Compound No. 76, 8-cyclopentyl-2-((2-(2-(dimethylamino)ethyl)-4,4-dimethyl-1,2,3,4-tetrahydroisoquinolin-7-yl)amino)-7-oxo-7,8-dihydropyrido[2,3-d]pyrimidine-6-carbonitrile] | 9.5 | 6 | 660 | 793 |
| N#Cc1cc2cnc(Nc3cnc4c(c3)CNCC4)nc2n(C2CCCC2)c1=O [Compound No. 77, 8-cyclopentyl-7-oxo-2-((5,6,7,8-tetrahydro-1,6-naphthyridin-3-yl)amino)-7,8-dihydropyrido[2,3-d]pyrimidine-6-carbonitrile] | 132 | 43 | 4560 | 452 |
| N#Cc1cc2cnc(Nc3ccc4c(c3)CNCCC4)nc2n(C2CCCC2)c1=O [Compound No. 78, 8-cyclopentyl-7-oxo-2-((2,3,4,5-tetrahydro-1H-benzo[c]azepin-8-yl)amino)-7,8-dihydropyrido[2,3-d]pyrimidine-6-carbonitrile] | 33 | 15 | 1670 | 751 |
| N#Cc1cc2cnc(Nc3ccc4c(c3)C(=O)NCCC4)nc2n(C2CCCC2)c1=O [Compound No. 79, 8-cyclopentyl-7-oxo-2-((1-oxo-2,3,4,5-tetrahydro-1H-benzo[c]azepin-8-yl)amino)-7,8-dihydropyrido [2,3-d]pyrimidine-6-carbonitrile] | > 147 | 38 | 4060 | 1840 |
| CC(C)Cn1c(=O)c(C#N)cc2cnc(Nc3ccc4c(c3)CCNC4)nc21 [Compound No. 81, 8-isobutyl-7-oxo-2-((1,2,3,4-tetrahydroisoquinolin-6-yl)amino)-7,8-dihydropyrido[2,3-d]pyrimidine-6-carbonitrile] | > 200 | 137 | 585 | 641 |
| N#Cc1cc2cnc(Nc3ccc4c(c3)CCCNC4=O)nc2n(C2CCCC2)c1=O [Compound No. 82, 8-cyclopentyl-7-oxo-2-((1-oxo-2,3,4,5-tetrahydro-1H-benzo[c]azepin-7-yl)amino)-7,8-dihydropyrido[2,3-d]pyrimidine-6-carbonitrile] | > 200 | 131 | 250 | 305 |
| N#Cc1cc2cnc(Nc3ccc4c(c3)CCCC(=O)N4)nc2n(C2CCCC2)c1=O [Compound No. 83, 8-cyclopentyl-7-oxo-2-((2-oxo-2,3,4,5-tetrahydro-1H-benzo[b]azepin-7-yl)amino)-7,8-dihydropyrido[2,3-d]pyrimidine-6-carbonitrile] | 84 | 24 | 820 | 1060 |
| N#Cc1cc2cnc(Nc3cc4c(cc3F)CNCC4)nc2n(C2CCCC2)c1=O [Compound No. 84, 8-cyclopentyl-2-((7-fluoro-1,2,3,4-tetrahydroisoquinolin-6-yl)amino)-7-oxo-7,8-dihydropyrido[2,3-d]pyrimidine-6-carbonitrile] | > 200 | 116 | 2520 | 2000 |
| N#Cc1cc2cnc(Nc3ccc4c(c3)CCNC4)nc2n(CC2CC2)c1=O [Compound No. 85, 8-(cyclopropylmethyl)-7-oxo-2-((1,2,3,4-tetrahydroisoquinolin-6-yl)amino)-7,8-dihydropyrido[2,3-d]pyrimidine-6-carbonitrile] | > 200 | > 190 | 725 | 723 |
| CC1(C)CCCC1n1c(=O)c(C#N)cc2cnc(NC3CCN(S(C)(=O)=O)CC3)nc21 (stereo not drawn) [Compound No. 388, 8-(2,2-dimethylcyclopentyl)-2-(1-(methylsulfonyl)piperidin-4-ylamino)-7-oxo-7,8-dihydropyrido[2,3-d]pyrimidine-6-carbonitrile] | 11 | 9 | > 5260 | – |
| Cc1c(C#N)c(=O)n(C2CCCC2)c2nc(NC3CCN(S(C)(=O)=O)CC3)ncc12 [Compound No. 389, 8-cyclopentyl-5-methyl-2-(1-(methylsulfonyl)piperidin-4-ylamino)-7-oxo-7,8-dihydropyrido[2,3-d]pyrimidine-6-carbonitrile] | 7.5 | 11 | 4220 | – |
